Test results published in the supplement of paper PMC8149375.

Legend:
Conditions in all cases: treatment: drug alone; 5 days
[1] = test system: SN12C; assay: AUC of dose-response viability curve, drug alone (arbitrary (AUC of normalised viability)); higher = less growth inhibition
Description: (§1)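 Primary HTS: 8 RCC cell lines treated with 8 doses (up to 10 uM) of each library drug alone for 5 days; viability read by CellTiter-Glo and normalised to DMSO. GI50 was fitted with XLfit (4-parameter), AUC is the area under the dose-response curve, and minimum viability is the lowest fraction of DMSO viability across doses.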

[2] = test system: 786-O; assay: as above
Description: as §1

[3] = test system: CAKI-1; assay: as above
Description: as §1

[4] = test system: 769-P; assay: as above
Description: as §1

[5] = test system: TK-10; assay: as above
Description: as §1

[6] = test system: UO-31; assay: as above
Description: as §1

[7] = test system: A498; assay: as above
Description: as §1

[8] = test system: ACHN; assay: as above
Description: as §1

[9] = test system: SN12C; assay: GI50, drug alone; higher = less potent
Description: as §1

[10] = test system: 786-O; assay: GI50, drug alone; higher = less potent
Description: as §1

[11] = test system: CAKI-1; assay: GI50, drug alone; higher = less potent
Description: as §1

[12] = test system: 769-P; assay: GI50, drug alone; higher = less potent
Description: as §1

[13] = test system: TK-10; assay: GI50, drug alone; higher = less potent
Description: as §1

[14] = test system: UO-31; assay: GI50, drug alone; higher = less potent
Description: as §1

[15] = test system: A498; assay: GI50, drug alone; higher = less potent
Description: as §1

[16] = test system: ACHN; assay: GI50, drug alone; higher = less potent
Description: as §1

[17] = test system: SN12C; assay: minimum viability across doses, drug alone, relative to DMSO (fraction); higher = less growth inhibition
Description: as §1

[18] = test system: 786-O; assay: as above
Description: as §1

[19] = test system: CAKI-1; assay: as above
Description: as §1

[20] = test system: 769-P; assay: as above
Description: as §1

[21] = test system: TK-10; assay: as above
Description: as §1

[22] = test system: UO-31; assay: as above
Description: as §1

[23] = test system: A498; assay: as above
Description: as §1

[24] = test system: ACHN; assay: as above
Description: as §1

| Compound | GI50, drug alone [10] [µM] | GI50, drug alone [16] [µM] | AUC of dose-response viability curve [1] | AUC of dose-response viability curve [2] | AUC of dose-response viability curve [3] | AUC of dose-response viability curve [4] | AUC of dose-response viability curve [5] | AUC of dose-response viability curve [6] | AUC of dose-response viability curve [7] | AUC of dose-response viability curve [8] | GI50, drug alone [9] [µM] | GI50, drug alone [11] [µM] | GI50, drug alone [12] [µM] | GI50, drug alone [13] [µM] | GI50, drug alone [14] [µM] | GI50, drug alone [15] [µM] | minimum viability across doses [17] | minimum viability across doses [18] | minimum viability across doses [19] | minimum viability across doses [20] | minimum viability across doses [21] | minimum viability across doses [22] | minimum viability across doses [23] | minimum viability across doses [24] |
| --- | --- | --- | --- | --- | --- | --- | --- | --- | --- | --- | --- | --- | --- | --- | --- | --- | --- | --- | --- | --- | --- | --- | --- | --- |
| CN1CCN(c2nc(C3=C(c4c[nH]c5ccccc45)C(=O)NC3=O)c3ccccc3n2)CC1 [Sotrastaurin (AEB071)] | > 10 | > 10 | 3.44 | 4 | 3.38 | 2.58 | 3.23 | 5.49 | 4.36 | 3.2 | > 10 | > 10 | > 10 | > 10 | > 10 | > 10 | 0.91 | 0.911 | 0.783 | 0.969 | 0.805 | 1.38 | 1.12 | 0.743 |
| CN[C@@H]1C[C@H]2O[C@@](C)([C@@H]1OC)n1c3ccccc3c3c4c(c5c6ccccc6n2c5c31)C(=O)NC4 [Staurosporine] | < 0.003 | 0.00533 | 1.06 | 0.171 | 0.143 | 0.299 | 0.286 | 0.1 | 1.56 | 0.526 | 0.0333 | < 0.003 | < 0.003 | < 0.003 | < 0.003 | 0.0909 | 0.00485 | 0.00288 | 0.00272 | 0.00587 | 0.0227 | 0.0116 | 0.0127 | 0.00377 |
| CCN(CC)CCNC(=O)c1c(C)[nH]c(/C=C2\C(=O)Nc3ccc(F)cc32)c1C.O=C(O)C[C@H](O)C(=O)O [Sunitinib Malate (Sutent)] | 3.98 | 0.65 | 2.6 | 3.62 | 2.77 | 3.15 | 2.82 | 3.93 | 3.58 | 2.33 | 1.9 | 1.49 | 5.36 | 3.29 | 3.15 | 5.2 | 0.0296 | 0.0182 | 0.0138 | 0.156 | 0.186 | 0.0171 | 0.21 | 0.0641 |
| COc1cc(N2CCC(N3CCN(C)CC3)CC2)ccc1Nc1ncc(Cl)c(Nc2ccccc2S(=O)(=O)C(C)C)n1 [TAE684 (NVP-TAE684)] | < 0.003 | 1.84 | 2.74 | 1.87 | 2.9 | 3.21 | 2.82 | 4.34 | 3.29 | 2.65 | 2.62 | 2.33 | > 10 | 3.59 | > 10 | 1.43 | 0.182 | 0.124 | 0.255 | 0.722 | 0.356 | 0.927 | 0.399 | 0.237 |
| CC(C)(O)CC(=O)NCCn1ccc2ncnc(Nc3ccc(Oc4cccc(C(F)(F)F)c4)c(Cl)c3)c21 [TAK-285] | > 10 | 4.12 | 3.17 | 2.42 | 3.14 | 3.04 | 2.5 | 4.9 | 3.69 | 2.78 | > 10 | > 10 | 6.69 | 3.95 | > 10 | > 10 | 0.81 | 0.524 | 0.584 | 0.407 | 0.412 | 1.21 | 0.852 | 0.421 |

More lines, main results first:

| GI50, drug alone [10] [µM] | GI50, drug alone [16] [µM] | Compound | AUC of dose-response viability curve [1] | AUC of dose-response viability curve [2] | AUC of dose-response viability curve [3] | AUC of dose-response viability curve [4] | AUC of dose-response viability curve [5] | AUC of dose-response viability curve [6] | AUC of dose-response viability curve [7] | AUC of dose-response viability curve [8] | GI50, drug alone [9] [µM] | GI50, drug alone [11] [µM] | GI50, drug alone [12] [µM] | GI50, drug alone [13] [µM] | GI50, drug alone [14] [µM] | GI50, drug alone [15] [µM] | minimum viability across doses [17] | minimum viability across doses [18] | minimum viability across doses [19] | minimum viability across doses [20] | minimum viability across doses [21] | minimum viability across doses [22] | minimum viability across doses [23] | minimum viability across doses [24] |
| --- | --- | --- | --- | --- | --- | --- | --- | --- | --- | --- | --- | --- | --- | --- | --- | --- | --- | --- | --- | --- | --- | --- | --- | --- |
| 0.167 | 0.209 | Cn1c(=O)c(F)c(Nc2ccc(I)cc2F)c2c(=O)n(C[C@@H](O)CO)cnc21 [TAK-733] | 2.08 | 2.08 | 1.57 | 2.33 | 1.72 | 3.49 | 3.42 | 1.8 | 0.758 | 0.095 | 0.933 | 0.149 | 2.45 | > 10 | 0.26 | 0.396 | 0.17 | 0.293 | 0.242 | 0.0861 | 0.784 | 0.291 |
| 0.381 | 0.708 | CCS(=O)(=O)c1cccc(-c2cc(C(=O)NC3CCN(C)CC3)c(C)c3[nH]c4ncc(C)cc4c23)c1 [TAK-901] | 1.98 | 1.81 | 2.65 | 3.25 | 2.27 | 4.08 | 3.09 | 2.33 | 0.383 | 1.32 | > 10 | 0.836 | 8.94 | 0.956 | 0.00544 | 0.00628 | 0.0277 | 0.521 | 0.0432 | 0.21 | 0.0141 | 0.0394 |
| > 10 | > 10 | Nc1nc(N)c2nc(-c3cccc(O)c3)c(-c3cccc(O)c3)nc2n1 [TG100-115] | 3.31 | 3.66 | 2.42 | 3.5 | 3.25 | 5.18 | 4.15 | 3.33 | > 10 | > 10 | > 10 | > 10 | > 10 | > 10 | 0.804 | 0.873 | 0.567 | 0.912 | 0.871 | 1.2 | 0.862 | 0.685 |
| > 10 | > 10 | Cc1cc(C(C)Nc2ccccc2)c2nc(N3CCOCC3)cc(=O)n2c1 (stereo unspecified) [TGX-221] | 3.34 | 2.6 | 2.84 | 3.18 | 3.06 | 5.04 | 4.23 | 3.15 | > 10 | 8.6 | > 10 | > 10 | > 10 | > 10 | 0.847 | 0.622 | 0.49 | 0.749 | 0.707 | 1.15 | 1.04 | 0.736 |
